Test results: patent publication US8754057B2, “Inhibition of apoptosis-specific eIF-5A(eIF-5A1″) with antisense oligonucleotides and siRNA as anti-inflammatory therapeutics” (Senesco Technologies, Inc., priority 2003, dated 2014)

Legend:
corpus luteum = test: DNA laddering in rat corpus luteum after PGF-2α; type: in vivo; conditions: superovulated rat corpus lutea; 0, 1, or 24 hours after injection
Experimental: The degree of apoptosis was determined by DNA laddering. Genomic DNA was isolated from dispersed corpus lineal cells or from excised corpus luteum tissue using the QIAamp DNA Blood Kit (Qiagen) according to the manufacturer's instructions. Corpus luteum tissue was excised before the induction of apoptosis by treatment with PGF-2α, 1 hour and 24 hours after induction of apoptosis. The isolated DNA was end-labeled by incubating 500 ng of DNA with 0.2 μCi [α-^32P]dCTP, 1 mM Tris, 0.5 mM EDTA, 3 units of Klenow enzyme, and […] each of dATP, dGTP, and dTTP at room temperature for 30 minutes. Unincorporated nucleotides were removed by passing the sample through a 1 ml Sepadex G-50 column according to Sambrook et al. The samples were then resolved by Tris-acetate-EDTA (1.8%) gel electrophoresis. The gel was dried for 30 minutes at room temperature under vacuum and exposed to x-ray film at −80° C. for 24 hours.
In one experiment, the degree of apoptosis in superovulated rat corpus lutea was examined either 0, 1, or 24 hours after injection with PGF-2α. In the 0 hour control, the ovaries were removed without PGF-2α injection. […] In this figure, the top panel is an autoradiograph of the Northern blot probed with the ^32P-dCTP-labeled 3′-untranslated region of rat corpus luteum apoptosis-specific DHS cDNA. The lower panel is the ethidium bromide stained gel of total RNA. […]

[1] = system: apoptosis-specific eIF-5A and DHS; test: Northern blot of rat corpus luteum RNA after PGF-2α; type: in vivo
Source text: […] of total RNA isolated from rat corpus luteum at various stages of apoptosis were separated on 1% denatured formaldehyde agarose gels and immobilized on nylon membranes. The full-length rat apoptosis-specific eIF-5A cDNA (SEQ ID NO:1) labeled with ^32P-dCTP using a random primer kit (Boehringer) was used to probe the membranes 7×10^7. Alternatively, full length rat DHS cDNA (SEQ ID NO:6) labeled with ^32P-dCTP using a random primer kit (Boehringer) was used to probe the membranes (7×10^7 cpm). The membranes were washed once with 1×SSC, 0.1% SDS at room temperature and three times with 0.2×SSC, 0.1% SDS at 65° C. The membranes were dried and exposed to X-ray film overnight at −70° C.

[2] = system: apoptosis-specific eIF-5A; test: Apoptosis-specific eIF-5A expression in U937 cells with PMA or LPS; type: cell-based, human
Experimental: (§1) U937 cells were collected and counted 16 hours after electroporation. 200,000 cells in 1 ml of media were added to each well of 24-well plates. Macrophage differentiation was stimulated by adding phorbol 12-myristate 13-acetate (PMA; 100 ng/ml). After 48 h with PMA., >80% of the monocytes had transformed from cells in suspension (monocytes) to adherent cells (macrophages). At 48 hours the media and any non-adherent cells were removed and fresh RPMI media with 10% FBS (1 ml per well) was added. The cells were left for 24 hours in fresh media to become quiescent.
72 hours after PMA addition to U937 cells, lipopolysaccharide (LPS; 100 ng/ml; from E. coli, serotype 0111), interferonγ (IFNγ; 100 Units/ml), or a combination of LPS and IFNγ were added to the wells. Samples were collected before stimulator addition (72h), and at various times after addition as outlined in FIG. 108. To collect samples for analysis of cytokine secretion, the media from each well was transferred to clean microcentrifuge tubes and cleared of any debris by centrifugation at 13000×g for 3 mins. The media was stored at −20° C. in 200-250 μl aliquots prior to analysis. […]
The protein concentration in the cell lysates was determined by bicinchoninic acid assays (BCA) with bovine serum albumin used as the standard. […]

U937 cells = test: Induction of macrophage differentiation in U937 cells; type: cell-based, human; conditions: 100 ng/ml PMA, 48 h
Experimental: as §1

[3] = system: lamina cribrosa cell line #506; type: cell-based, human; conditions: confluent LC cells, 48 hours; 50 μM camptothecin, 10 ng/ml TNF-α; Hoescht staining
Experimental: FIG. 83 is a graph showing percent apoptosis of lamina cribrosa cell line #506 in response to treatment with camptothecin and TNF-α. Lamina cribrosa cell line #506 cells were seeded at 40,000 cells per well onto an 8-well culture slide. Three days later the confluent LC cells were treated with either 10 ng/ml TNF-α, 50 μM camptothecin, or 10 ng/ml TNF-α plus 50 μM camptothecin. An equivalent volume of DMSO, a vehicle control for camptothecin, was added to the untreated control cells. The cells were stained with Hoescht 33258 48 hours after treatment and viewed by fluorescence microscopy using a UV filter. Cells with brightly stained condensed or fragmented nuclei were counted as apoptotic.
Apoptosis was induced in lamina cribrosa cells using a combination of 50 μM camptothecin (Sigma) and 10 ng/ml TNF-α (Leinco Technologies).
Since TNF-α is believed to play an important role during the glaucomatous process, the susceptibility of LC cells to the cytotoxic effects of TNF-α was examined. Confluent LC cells were exposed to either camptothecin, TNF-α, or a combination of camptothecin and TNF-α for 48 hours (FIG. 83).

[4] = system: apoptosis-specific eIF-5A; test: Apoptosis-specific eIF-5A expression in LC cells during camptothecin or TNF-α plus camptothecin treatment; type: cell-based, human; conditions: LC cells #506; 50 μM camptothecin, 10 ng/ml TNF-α; 1, 4, 8, 24 hours
Experimental: Lamina cribrosa cell #506 cells were seeded at 40,000 cells per well onto a 24-well plate. Three days later the LC cells were treated with either 50 μM camptothecin or 10 ng/ml TNF-α plus 50 μM camptothecin and protein lysate was harvested 1, 4, 8, and 24 hours later. An equivalent volume of DMSO was added to control cells as a vehicle control and cell lysate was harvested 1 and 24 hours later. 5 μg of protein from each sample was separated by SDS-PAGE, transferred to a PVDF membrane, and Western blot with anti-apoptosis-specific eIF-5A antibody. The bound antibody was detected by chemiluminescence and exposed to x-ray film. The membrane was then stripped and re-blotted with anti-β-actin as an internal loading control.
Protein was isolated for Western blotting from lamina cribrosa cells growing on 24-well plates by washing the cells twice in PBS (8 g/L NaCl, 0.2 g/L KCl, 1.44 g/L Na2HPO4, and 0.24 g/L KH2PO4) and then adding 50 μl of lysis buffer [2% SDS, 50 mM Tris-HCl (pH 7.4)]. The cell lysate was collected in a microcentrifuge tube, boiled for 5 minutes and stored at −20° C. until ready for use. Protein concentrations were determined using the Bicinchoninic Acid Kit (BCA; Sigma). For Western blotting, 5 μg of total protein was separated on a 12 SDS-polyacrylamide gel. The separated proteins were transferred to a polyvinylidene difluoride membrane. […]

## CCCCC[C@H](O)/C=C/[C@@H]1[C@@H](C/C=C\CCCC(=O)O)[C@@H](O)C[C@H]1O [PGF-2α]
Corpus luteum
  laddering of low molecular weight DNA fragments: discernible within 1 hour after induction of apoptosis and is pronounced by 24 hours
[1]
  expression of DHS: increased substantially within 1 hour of treatment
  expression of apoptosis-specific eIF-5A: significantly enhanced

## CCCCCCCCCCCCCC(=O)O[C@@H]1[C@@H](C)[C@@]2(O)[C@@H](C=C(CO)C[C@]3(O)C(=O)C(C)=C[C@@H]23)[C@@H]2C(C)(C)[C@]12OC(C)=O [PMA, phorbol 12-myristate 13-acetate]
[2]
  apoptosis-specific eIF-5A expression: upregulated
U937 cells
  monocytes transformed from cells in suspension to adherent cells (macrophages): > 80%

## CC[C@@]1(O)C(=O)OCc2c1cc1n(c2=O)Cc2cc3ccccc3nc2-1 [camptothecin]
[3]
  cell death of LC cells: approximately 30%
[4]
  expression of apoptosis-specific eIF-5A protein: did not alter significantly
